According to ChEMBL document CHEMBL1921741, “Triggering of erythrocyte cell membrane scrambling by ursolic acid” (J Nat Prod, 2011):
The source made the active and inactive calls. No cut-off for these calls is given here.

Experiments:
Erythrocyte [1] = test: Induction of eryptosis in human erythrocytes assessed as increase in cytosolic Ca2+ concentration at >= 5 uM after 48 hrs by fluo-3/AM-fluorescence-based FACS analysis; assay type: functional, cell-based
Erythrocyte [2] = test: Induction of eryptosis in human erythrocytes assessed as hemolysis-mediated hemoglobin release at 1 uM after 48 hrs by photometric analysis; assay type: functional, cell-based
Erythrocyte [3] = test: Induction of eryptosis in human erythrocytes assessed as stimulation of ceramide formation at 10 uM after 48 hrs by FITC-based flow cytometry; assay type: functional, cell-based
Erythrocyte [4] = test: Induction of apoptosis in human erythrocytes assessed as scrambling of the cell membrane at 0.5 to 10 uM after 48 hrs using Annexin V-FITC staining by confocal laser scanning microscopy in presence of Ca2+; assay type: functional, cell-based
Erythrocyte [5] = test: Induction of eryptosis in human erythrocytes assessed as phospholipid scrambling of the cell membrane at 10 uM after 48 hrs using Annexin V-FITC staining by confocal laser scanning microscopy in absence of Ca2+; assay type: functional, cell-based
Erythrocyte [6] = test: Induction of eryptosis in human erythrocytes assessed as phospholipid scrambling of the cell membrane at >= 5 uM after 48 hrs using Annexin V-FITC staining by confocal laser scanning microscopy; assay type: functional, cell-based
Erythrocyte [7] = test: Induction of eryptosis in human erythrocytes assessed as decrease in intracellular ATP concentration at 10 uM after 48 hrs by luciferase-based luminometry; assay type: functional, cell-based
Erythrocyte [8] = test: Induction of eryptosis in human erythrocytes assessed as cell shrinkage measuring decrease in forward scatter of the cells at 5 uM after 48 hrs by […] FACS analysis; assay type: functional

Activity (Erythrocyte [7]): inactive
SMILES: C[C@H]1[C@H](C)CC[C@]2(C(=O)O)CC[C@]3(C)C(=CC[C@@H]4[C@@]5(C)CC[C@H](O)C(C)(C)[C@@H]5CC[C@]43C)[C@H]12
Activity (Erythrocyte [1]): Active
Activity (Erythrocyte [2]): Active
Activity (Erythrocyte [3]): inactive
Activity (Erythrocyte [4]): Active
Activity (Erythrocyte [5]): inactive
Activity (Erythrocyte [6]): Active
Activity (Erythrocyte [8]): Active
